Laboratory results reported in US6362212B1, “Oxime derivative and bactericide containing the same as active ingredient” (Shionogi & Company, Ltd., priority 1994, dated 2002).

Experiments:
Format in all cases: in vivo
[1] = test system: Puccinia coronata; test: Controlling effect on Puccinia coronata by foliage application (pot experiment); settings: foliage spray on oat (cv. PC-38) seedlings, infected area after 1 day moist chamber and 8 days greenhouse at 20° C.
Description: The following Test Examples illustrate the effects of the fungicide of the present invention. (I. Controlling effects on various plant diseases by foliage application (pot experiment)) A test compound was dissolved in a small amount of N,N-dimethylformamide, and the solution was diluted to a given concentration with distilled water containing a spreader. Thus, a liquid sample to be tested was prepared. The liquid sample was sprayed to test plants, and 24 hours thereafter, pathogens were inoculated by the method described below. […] The seeds of oat (cv.: PC-38) were sown in plastic cups (each 9 cm in diameter), followed by cultivation for 2 to 3 weeks. The test compound in the form of a solution or suspension was sprayed to the seedlings. Spores of Puccinia coronata cultured on oat leaves were collected, diluted about 10-fold with talc, and sprayed to the test plants to inoculate the plants with the pathogen. After the inoculation, the plants were kept in a moist chamber at 20° C. for 1 day and then in a greenhouse at 20° C. for 8 days. The infected area on the leaf was observed, and the percent control was calculated.

[2] = test system: Pseudoperonospora cubensis; test: Controlling effect on Pseudoperonospora cubensis by foliage application (pot experiment); settings: foliage spray on cucumber (var. TSUKUBASHIROIBO) first leaves, lesion area after 10 days in moist chamber at 20° C.
Description: The following Test Examples illustrate the effects of the fungicide of the present invention. (I. Controlling effects on various plant diseases by foliage application (pot experiment)) A test compound was dissolved in a small amount of N,N-dimethylformamide, and the solution was diluted to a given concentration with distilled water containing a spreader. Thus, a liquid sample to be tested was prepared. The liquid sample was sprayed to test plants, and 24 hours thereafter, pathogens were inoculated by the method described below. […] The seeds of cucumber (var.: […]) were sown in plastic cups (each 9 cm in diameter), followed by cultivation for 2 to 3 weeks. The test compound in the form of a solution or suspension was sprayed to the surface of their first leaves, and a zoosporangia suspension of Pseudoperonospora cubensis cultured on cucumber leaves was dropped on the above leaf surfaces to inoculate the test plants with the pathogen. After the inoculation, the plants were kept in a moist chamber at 20° C. for 10 days. Then, the area of the lesions around the inoculum were observed and the percent control was calculated.

[3] = test system: Pyricularia oryzae; settings: foliage spray on rice seedlings (cv. […]), number of lesions six days after the inoculation
[4] = test system: Erysiphe graminis f. sp. tritici; test: Controlling effect on Erysiphe graminis f. sp. tritici by foliage application (pot experiment); settings: foliage spray on wheat (cv. NORIN No. 61) seedlings, infected area after 10 days in greenhouse at 20° C.; for pest or weed control at 500 ppm: Blumeria graminis, foliar, 240 h, read-out: Controlling effect on ErYsiphe graminis f. sp. tritici by foliage application at 500 ppm (percent control)
Procedure, shortened: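 Wheat seedlings (cv. NORIN No. 61, 2-3 weeks old) sprayed with compound in DMF diluted in water with spreader, then inoculated with conidia 24 hours later. Kept in greenhouse at 20 °C for 10 days; percent control calculated from infected leaf area.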

[5] = test system: Sphaerotheca fuliginea; test: Controlling effect on Sphaerotheca fuliginea by foliage application (pot experiment); settings: foliage spray on cucumber (cv. TSUKUBASHIROIBO) first leaves, infected area after 10 days in greenhouse at 20° C.; for pest or weed control at 500 ppm: Podosphaera fuliginea, in Cucumis sativus, foliar, 240 h, read-out: Controlling effect on Sphaerotheca fuliginea by foliage application at 500 ppm (percent control)
Procedure, shortened: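 First leaves of cucumber seedlings, 2-3 weeks old, were sprayed with compound (DMF solution diluted in water with spreader). They were inoculated 24 h later with a Sphaerotheca fuliginea conidia spray and kept 10 days at 20° C in a greenhouse. Percent control was calculated from infected leaf area.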

SMILES | Controllng effect on Puccinia coronata by foliage application at 500 ppm (percent control) [1] | Controlling effect on Pseudoperonospora cubensis by foliage application at 500 ppm (percent control) [2] | Controlling effect on PYricularia orYzae by foliage application at 500 ppm (percent control) [3] | pest or weed control at 500 ppm [4] | pest or weed control at 500 ppm [5] | Controlling effect on ErYsiphe graminis f. sp. tritici by foliage application at 500 ppm (percent control) [4] | Controlling effect on Sphaerotheca fuliginea by foliage application at 500 ppm (percent control) [5]
CON=C(c1noc(C)n1)c1ccccc1COc1ccc(C)cc1 [compound 914] | 97 percent control |  |  |  |  |  | 
CON=C(c1cc(C)no1)c1ccccc1COc1ncc(C(F)(F)F)cc1Cl (single isomer, unassigned) [690A, 2-(3-chloro-5-trifluoromethyl-2-pyridyloxymethyl)phenyl 3-methylisoxazol-5-yl ketone O-methyloxime] |  | 100 percent control | 97 percent control | 100% | 100% |  | 
CON=C(c1ccccc1ON=C(C)c1cccc(C(F)(F)F)c1)C1NCCS1 (stereo not drawn) [Compound No. 2799, 2-[(α-methyl-3-trifluoromethylbenzylidene)aminooxy]phenyl thiazolidin-2-yl ketone O-methyloxime] |  | 95 percent control | 100 percent control | 97% | 100% |  | 
C=CCON=C(c1ccccc1COc1ccccc1)n1cncn1 [compound 278] | 90 percent control |  |  |  |  | 90 percent control | 97 percent control
CON=C(c1ccccc1COc1cccnc1Cl)n1ccnc1 [compound 57] | 90 percent control |  |  |  |  | 70 percent control | 90 percent control
CON=C(c1ccno1)c1ccccc1COc1ccccc1C (single isomer, unassigned) [512B] |  | 100 percent control | 97 percent control |  |  | 97 percent control | 100 percent control
CON=C(c1nnn(C)n1)c1ccccc1COc1ccccc1 [compound 2001] | 70 percent control |  |  |  |  |  | 70 percent control
CON=C(c1ccccc1Oc1ccccc1)c1nccn1C [compound 161] | 97 percent control |  |  |  |  | 70 percent control | 100 percent control
CON=C(C1=NCCN1)c1ccccc1COc1cc(C)ccc1C [compound 1478] | 70 percent control |  |  |  |  | 90 percent control | 70 percent control
CON=C(c1cc(C)no1)c1ccccc1COc1ccc(Cl)cc1C (single isomer, unassigned) [641A] |  | 100 percent control | 70 percent control |  |  | 90 percent control | 100 percent control
CON=C(c1ccccc1COc1cc(Cl)ccc1Cl)c1nccn1C (single isomer, unassigned) [131A] |  | 100 percent control | 90 percent control |  |  | 90 percent control | 100 percent control
CON=C(c1ccccc1CON=C(C)c1cccc(C(F)(F)F)c1)C1SCCN1C (stereo not shown) [Compound No. 2839] |  | 95 percent control | 90 percent control |  |  | 97 percent control | 100 percent control
CON=C(c1ccon1)c1ccccc1COc1ccccc1Cl (mixture of isomers) [compound 305] |  | 100 percent control | 70 percent control |  |  | 90 percent control | 100 percent control
CON=C(c1ccccc1COc1ccccc1)c1nnnn1C [compound 1001] | 70 percent control |  |  |  |  |  | 
CON=C(c1cc(C)no1)c1ccccc1COc1cccc(C)c1 (single isomer, unassigned) [613A] |  | 70 percent control | 70 percent control |  |  | 90 percent control | 100 percent control
CON=C(C1=NCCN1C)c1ccccc1COc1cccc(C)c1 [compound 1113] | 70 percent control |  |  |  |  |  | 
CON=C(c1nnco1)c1ccccc1COc1cccc(Cl)c1 [compound 706] |  | 100 percent control | 70 percent control |  |  | 90 percent control | 100 percent control
C=CCON=C(c1ccccc1COc1ccccc1)n1cccn1 [compound 298] | 70 percent control |  |  |  |  |  | 
CON=C(c1ccccc1COc1cccc(C)c1)c1nccn1C (single isomer, unassigned) [113A] |  | 100 percent control | 97 percent control |  |  | 90 percent control | 100 percent control
CON=C(c1nnco1)c1ccccc1COc1cc(Cl)ccc1Cl [compound 731] |  | 100 percent control | 70 percent control |  |  | 70 percent control | 100 percent control
CON=C(c1ccno1)c1ccccc1COc1ccc(Cl)cc1C (single isomer, unassigned) [541B] |  | 100 percent control | 70 percent control |  |  | 90 percent control | 100 percent control
CON=C(c1ccon1)c1ccccc1COc1cccc(C)c1 (mixture of isomers) [compound 313] |  | 100 percent control | 90 percent control |  |  | 70 percent control | 100 percent control
